Experimental findings from publication PMC3323469, “Comparative study of ^64Cu/NOTA-[D-Tyr^6,βAla^11,Thi^13,Nle^14]BBN(6-14) monomer and dimers for prostate cancer PET imaging” (EJNMMI Research, 2012) are described below.

Numbered stars: 1 amine (or outer) side, 2 acyl side, 3 side chain; on linkers, the order of the positions; unused ones are H or OH. Bridge positions count the residues as written; N and C are the ends. Square brackets hold non-standard residues; d marks the D form. Peptide text beside a SMILES is read from it. I, II: the chains in the order shown. * marks the point of attachment. NOTA = O=C(O)CN1CCN(CC(=O)O)CCN(CC(=O)*)CC1; X1 = O=C(CCC(=O)[*:2])NCCOCCOCC(=O)[*:1]; 2Thi = N[C@@H](Cc1cccs1)C(=O)O; Nle = CCCC[C@H](N)C(=O)O; AEEA = NCCOCCOCC(=O)O; βAla = NCCC(=O)O

The format of data set [1] is in vitro ADME. The conditions noted are these: 24 h. The protocol:
Plasma and in vivo stability studies were realized as previously described by our group. Briefly, after peptide reconstitution, studies were carried out by incubating the tracers in mouse plasma for a period of 24 h and by injecting around 15 to 25 MBq (400 to 650 μCi; 100 μL) of ^64Cu/peptide to female Balb/c mice; 3 mice per peptide. After 24 h, a portion of the incubation mixtures in plasma or blood samples taken from the back paw were quenched with equal amounts of MeCN, chilled (4°C) and centrifuged, and the supernatant was assayed by HPLC. The stability was also determined by radio-TLC directly from plasma and blood samples without further handling; free ^64Cu and purified radiolabeled peptides were used as standards. The radio-TLCs were eluted on C-18-coated plastic sheets with 0.1 M sodium citrate buffer at pH 5.5 using an instant imager system for the radio-detection.

Data set [2] in a line: in vivo. The conditions noted are these: Balb/c nude, mouse, total radioactivity. Set-up: species or system Balb/c nude mice. The protocol: (§1) Tumor-bearing Balb/c nude mice were injected with 370 to 740 kBq (10 to 20 μCi; 100 μL) of ^64Cu/NOTA-monomer and ^64Cu/NOTA-dimer 2 via the caudal vein and sacrificed with CO2 at different periods of time after injection. Organs of interest were then collected and weighed. -Radioactivity was measured in a gamma counter. The blocking experiments were realized by co-injecting 0.1 μmol of non-radiolabeled peptide. The results were expressed as %ID/g with a minimum of 3 mice for each condition.

The test system of data set [3] is PC3 tumor. Kind of data set: in vivo. Conditions: mouse. Also noted: species or system Balb/c nude mice. As for the experimental part: as §1
Data set [4] has as its target T1, GRPR (Mus musculus, UniProt P21729).
T1 construct: using the pancreas, a GRPR-rich tissue, as a target for specific receptor-mediated accumulation; from tissue; host or cells: Female Balb/c mice, in vivo; organs (pancreas and others) collected 30 min p.i
Kind of data set: Biodistribution in Balb/c mice (in vivo GRPR-targeting efficacy). The conditions noted are these: 64Cu-labeled peptide, 30 min p.i.; for Pancreas uptake: female Balb/c mice. The protocol:
To determine the in vivo GRPR-targeting efficacy of labeled peptides, biodistribution of female Balb/c mice were realized with a minimum of 4 mice for each condition. Briefly, mice were injected with 370 to 740 kBq (10 to 20 μCi; 100 μL) of either ^64Cu/NOTA-monomer, ^64Cu/NOTA-dimer 1 or ^64Cu/NOTA-dimer 2 via the caudal vein. The animals were sacrificed with CO2 at 30 min post-injection [p.i.]. Organs of interest were then collected, weighed and measured in a gamma counter. The results were expressed as percentage of the injected dose per gram of tissue [%ID/g].

Data set [5] is described as follows: Solubility in physiological media. The data set is classed as physicochemical. The conditions noted are these: 64Cu-labeled peptide; DMF-PBS (10/90 v/v) used to solubilize. The protocol: Our cyclotron facility provides ^64Cu isotope on a routine basis for research purposes using a target system developed in collaboration with Advanced Cyclotron Systems Inc. (ACSI, Richmond, British Columbia, Canada). ^64Cu was prepared on an EBCO TR-19 cyclotron (EBCO Technologies, Vancouver, Canada) by the ^64Ni(p, n)^64Cu nuclear reaction using an enriched ^64Ni target electroplated on a rhodium disk. [^64Cu]CuCl2 was recovered from the target following the procedure of McCarthy et al. and converted to [^64Cu]copper[II] acetate by dissolving the [^64Cu]CuCl2 in ammonium acetate (0.1 M; pH 5.5). Peptides were labeled with ^64Cu following conditions optimized in our laboratory. Briefly, peptides (5 μg) were dissolved in a 0.1 M ammonium acetate buffer at pH 5.5 with [^64Cu]Cu(OAc)2 (8 to 10 mCi, 296 to 370 MBq) in a total volume of 250 to 300 μL, and then, the resulting solution was incubated at 100°C for 10 min. The labeled product was purified by HPLC using a C-18 column and a radio-detector. The amount of radiolabeled peptide was determined by the peak area of the tracer in the UV-chromatogram compared to the UV peak area of the standard unlabelled peptide (Figure 3). […] The peptide fraction was collected, evaporated and counted in a Capintec radioisotope calibrator (Capintec, Inc., NJ, USA) to calculate the specific activity of the product.

In data set [6] the target is GRPR (Homo sapiens, UniProt P30550). Briefly: Competitive binding assay with [125I-Tyr4]bombesin on PC3 cells. Set-up: host or cells: PC3 cells (whole, adherent cells in 24-well plates). The conditions noted are these: read-out: Ki (affinity for GRPR). The protocol: Competition assays were performed in 24-well plates using PC3 cells. The cells were cultured until near confluence, and the medium was replaced by 400 μL of reaction medium (RPMI complemented with 2 mg/mL BSA, 4.8 mg/mL HEPES, 1 U/mL penicillin G and 1 μg/mL streptomycin). For the assay, equal volumes of radioactive and non-radioactive ligands were added. […] The plates were incubated for 40 min at 37°C with agitation. After the incubation, the reaction medium was removed, and the cells were washed three times with PBS at room temperature. The cells were harvested and counted in a gamma counter (Cobra II auto-gamma counter, Packard, MN, USA). Experiments were realized three times in triplicate. Data were analyzed with GraphPad Prism 5 Software (GraphPad Software, San Diego, CA, USA) to determine the IC50. Finally, the Ki was determined using Cheng and Pursoff's formula [32].
GRPR (Homo sapiens, UniProt P30550), sequence (P30550 whole entry): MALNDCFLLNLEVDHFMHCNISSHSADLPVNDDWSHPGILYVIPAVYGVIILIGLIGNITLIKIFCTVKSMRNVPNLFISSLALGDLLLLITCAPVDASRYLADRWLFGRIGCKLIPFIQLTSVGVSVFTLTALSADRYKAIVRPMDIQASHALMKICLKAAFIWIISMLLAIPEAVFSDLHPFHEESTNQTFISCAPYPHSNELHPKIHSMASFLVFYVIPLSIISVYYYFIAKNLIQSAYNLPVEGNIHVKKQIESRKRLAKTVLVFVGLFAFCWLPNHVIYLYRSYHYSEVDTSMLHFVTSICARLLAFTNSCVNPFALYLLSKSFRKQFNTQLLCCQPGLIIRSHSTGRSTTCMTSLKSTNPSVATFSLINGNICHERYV

T1 sequence (P21729 whole entry): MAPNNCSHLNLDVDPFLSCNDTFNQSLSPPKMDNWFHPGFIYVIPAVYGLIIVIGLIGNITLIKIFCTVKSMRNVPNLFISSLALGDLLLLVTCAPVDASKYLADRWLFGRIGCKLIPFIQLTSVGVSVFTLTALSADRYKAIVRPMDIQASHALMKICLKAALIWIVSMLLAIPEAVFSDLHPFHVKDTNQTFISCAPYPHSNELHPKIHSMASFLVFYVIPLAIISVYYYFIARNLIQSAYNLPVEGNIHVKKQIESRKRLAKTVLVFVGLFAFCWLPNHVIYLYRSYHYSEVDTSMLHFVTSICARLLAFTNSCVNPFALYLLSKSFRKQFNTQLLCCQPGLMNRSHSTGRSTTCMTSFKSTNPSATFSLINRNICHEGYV

As for `CCCC[C@H](NC(=O)[C@H](Cc1cccs1)NC(=O)[C@H](Cc1c[nH]cn1)NC(=O)CCNC(=O)[C@@H](NC(=O)[C@H](C)NC(=O)[C@H](Cc1c[nH]c2ccccc12)NC(=O)[C@H](CCC(N)=O)NC(=O)[C@@H](Cc1ccc(O)cc1)NC(=O)COCCOCCNC(=O)CN1CCN(CC(=O)O)CCN(CC(=O)O)CC1)C(C)C)C(N)=O` [^64Cu/NOTA-monomer, metal not drawn] ({NOTA-AEEA}-[dY]QWAV[βAla]H[2Thi][Nle]-NH2), the “Stability in mouse plasma” value in data set [1] is “stable”. Also, the tissue to tissue ratio at 0.5 h in data set [2] (iv, Tumor/blood ratio) came out at 1.49 ± 0.41. For the same compound, in data set [2] (Biodistribution Liver), the tissue uptake (usually the share of the injected amount in each gram of the tissue) at 0.5 h worked out at 5.38 ± 8.12 %ID/g. In addition, the tissue uptake at 0.5 h in data set [2] (Biodistribution Pancreas) was determined as 5.1 ± 2.5 %ID/g. In data set [3] (Balb/c nude, 0.5 h), the “Biodistribution Adrenal” value is listed as 4.29 ± 1.13 %ID/g, the “Biodistribution Blood” value is reported as 1.35 ± 0.47 %ID/g, the “Biodistribution Bone” value came to 0.43 ± 0.46 %ID/g and the “Biodistribution Brain” value is 0.08 ± 0.07 %ID/g. In data set [3] (Balb/c nude, 0.5 h), the “Biodistribution Fat” value amounted to 0.65 ± 0.54 %ID/g, the “Biodistribution Heart” value was 1.05 ± 0.91 %ID/g, the “Biodistribution Kidney” value came out at 10.42 ± 1.29 %ID/g and the “Biodistribution Lungs” value turned out to be 1.77 ± 1.28 %ID/g. Besides, in data set [3] (Balb/c nude, 0.5 h), the “Biodistribution Muscle” value is reported as 0.40 ± 0.33 %ID/g, the “Biodistribution Plasma” value is recorded as 2.48 ± 0.63 %ID/g, the “Biodistribution Spleen” value turned out to be 1.63 ± 1.82 %ID/g and the “Biodistribution Tumor” value is on record as 1.79 ± 0.46 %ID/g. For the same compound, in data set [3] (Balb/c nude, iv, 0.5 h), the Tumor/kidney ratio is listed as 0.17 ± 0.04, the Tumor/liver ratio is listed as 2.07 ± 1.13, the Tumor/muscle ratio is recorded as 7.42 ± 3.17 and the Tumor/pancreas ratio is recorded as 0.44 ± 0.17. In data set [3], the Tumor/muscle ratio stood at 7.42 ± 0.41.

As to `CCCC[C@H](NC(=O)[C@H](Cc1cccs1)NC(=O)[C@H](Cc1c[nH]cn1)NC(=O)CCNC(=O)[C@@H](NC(=O)[C@H](C)NC(=O)[C@H](Cc1c[nH]c2ccccc12)NC(=O)[C@H](CCC(N)=O)NC(=O)[C@@H](Cc1ccc(O)cc1)NC(=O)CCC(=O)NCCOCCOCC(=O)N[C@@H](CCCCNC(=O)CN1CCN(CC(=O)O)CCN(CC(=O)O)CC1)C(=O)NCCOCCOCC(=O)NCC(=O)N[C@H](Cc1ccc(O)cc1)C(=O)N[C@@H](CCC(N)=O)C(=O)N[C@@H](Cc1c[nH]c2ccccc12)C(=O)N[C@@H](C)C(=O)N[C@H](C(=O)NCCC(=O)N[C@@H](Cc1c[nH]cn1)C(=O)N[C@@H](Cc1cccs1)C(=O)N[C@@H](CCCC)C(N)=O)C(C)C)C(C)C)C(N)=O` [NOTA-dimer 2, BBN(6-14)-Suc-PEG-Lys(NOTA)-PEG-Gly-BBN(6-14)] (I: K(NOTA)[AEEA]G[dY]QWAV[βAla]H[2Thi][Nle]-NH2 / II: [dY]QWAV[βAla]H[2Thi][Nle]-NH2; linker I:N-II:N via X1), the “Fold higher pancreas uptake than NOTA-monomer and NOTA-dimer 1” value in data set [4] (Balb/c mice) stood at 3.6 fold. In data set [4], this compound gave a Pancreas uptake of 57 ± 16 %ID/g. Further, the “Solubility in physiological media” value in data set [5] was “poorly soluble”. Moreover, the Ki (in general, the equilibrium dissociation constant of an inhibitor or competing ligand from its target) in data set [6] came out at 1.76 ± 1.3 nM.

`CCCC[C@H](NC(=O)[C@H](Cc1cccs1)NC(=O)[C@H](Cc1c[nH]cn1)NC(=O)CCNC(=O)[C@@H](NC(=O)[C@H](C)NC(=O)[C@H](Cc1c[nH]c2ccccc12)NC(=O)[C@H](CCC(N)=O)NC(=O)[C@@H](Cc1ccc(O)cc1)NC(=O)CCC(=O)NCCOCCOCC(=O)N[C@@H](CCCCNC(=O)CN1CCN(CC(=O)O)CCN(CC(=O)O)CC1)C(=O)NCC(=O)N[C@H](Cc1ccc(O)cc1)C(=O)N[C@@H](CCC(N)=O)C(=O)N[C@@H](Cc1c[nH]c2ccccc12)C(=O)N[C@@H](C)C(=O)N[C@H](C(=O)NCCC(=O)N[C@@H](Cc1c[nH]cn1)C(=O)N[C@@H](Cc1cccs1)C(=O)N[C@@H](CCCC)C(N)=O)C(C)C)C(C)C)C(N)=O` [NOTA-dimer 1, BBN(6-14)-Suc-PEG-Lys(NOTA)-Gly-BBN(6-14)] (I: K(NOTA)G[dY]QWAV[βAla]H[2Thi][Nle]-NH2 / II: [dY]QWAV[βAla]H[2Thi][Nle]-NH2; linker I:N-II:N via X1) registered a Pancreas uptake in data set [4] of 15.6 ± 2.0 %ID/g. In addition, the “Solubility in physiological media” value in data set [5] is reported as “poorly soluble”. In addition, the Ki in data set [6] amounted to 2 ± 1.59 nM.
